Measurements: patent US20230052667A1, “AGENT FOR MAINTAINING OR ENHANCING COLLAGEN PRODUCTION ABILITY” (Shiseido Company, Ltd., priority 2020, published 2023)

Tested on: human skin-derived fibroblasts
Test: Collagen quantification in fibroblasts after artificial sunlight irradiation through the wavelength conversion substance
Format: cell-based
Conditions: artificial sunlight 80 minutes passed through substance (10% phosphor film or 1% aqueous solution, no cell contact); collagen measured 3 days after irradiation; UV-only control 14 μg collagen/well
Description: Preparation method: A film containing 10% Zinc Oxide phosphor, a film containing 10% magnesium titanate phosphor were used, and C-phycocyanin was dissolved in ultrapure water at a concentration of 1% and used as a solution. • Cells: human skin-derived fibroblasts • Collagen assay kit: Cosmo Bio Co., COL-001 • DNA-quantitation kit: Cosmo Bio Co., AK06 • Artificial Sunlight Irradiation System: Celick Corporation: XC-500BF
Human skin-derived fibroblasts cultured in 75 cm^2 flasks were treated with trypsin, and after harvesting the cells, the cells were seeded at a density of 2×10^5 cells/dish using medium on five 6-well plates according to the plate arrangement below. […]
After 3 days from illumination, culture supernatants were removed from wells for collagen quantitation in each treatment group and washed with PBS. Collagen in human fibroblast layers was extracted and measured according to the protocol of the collagen quantitation kit (https://search.cosmobio.co.jp/cosmo_searchp/search_gate2/docs/CSR_/COL001.20190327.pdf). In addition, the amount of DNA in samples after collagen extraction was determined for correction of collagen quantitative results according to the protocol of the Quantitative Kit of DNA (https://search.cosmobio.co.jp/cosmo)_search_p/search_gate2/docs/PMC_/AK06.20140507.pdf).

C-phycocyanin
collagen produced by UV-irradiated fibroblasts: 25 μg collagen/well
